{"source": "patent US20120136050A1", "about": "“USE OF A MELATONIN AGONIST FOR THE TREATMENT OF SLEEP DISORDERS INCLUDING PRIMARY INSOMNIA” (VANDA PHARMACEUTICALS INC., priority 2009, published 2012)", "format_in_all_cases": "in vivo, human", "key": {"[1]": {"tested_on": "healthy volunteers, 5 hour advance in bedtime", "test": "Example 1: placebo-controlled clinical trial, 5 hour advance in bedtime (DLMO, PSG)", "method": "A clinical trial was conducted to assess the safety of Compound A as well as to determine the ability of Compound A to shift the sleep/wake cycle following a 5 hour advance in bedtime. The study was a randomized, double-blind, parallel group, placebo-controlled study. It consisted of a 2-4 week outpatient screening period followed by an 8-day inpatient stay. After acclimating to the sleep lab, bedtime was advanced by 5 hours. The primary objectives of this study were to investigate the exposure-response to Compound A on advancement of circadian release of endogenous melatonin rhythm as measured by dim light melatonin onset (DLMO, a biomarker of the sleep-wake cycle), to investigate the exposure-response to Compound A on mean sleep efficiency parameters as measured by PSG, to investigate the exposure-response to Compound A on objective neurobehavioral performance lapses during scheduled work-time as measured by computerized continuous performance testing, and to assess the safety and tolerability of Compound A. Forty-five healthy volunteers, men and women aged 18-50, were enrolled into this study. Thirty-nine subjects were randomized.\nThe study was designed to assess the safety and efficacy of four oral doses of Compound A (10 mg, 20 mg, 50 mg and 100 mg) compared to matching placebo on circadian phase shift, sleep parameters during the major sleep episode, and subject alertness. After written informed consent was signed, subjects that met the inclusion/exclusion criteria at screening and baseline were enrolled into the 8-day in-patient portion of the study. All in-patient assessments were conducted in a time-isolation sleep lab in which no time cues were available to subjects. During the first three nights, subjects were given placebo 30 minutes prior to bedtime (11:00 PM) in a single-blind fashion. Baseline assessments for the efficacy parameters were measured during this period. At 5:00 PM on day 3, subjects started a 19 hour pre-constant posture (CP) segment during which time the subjects remained seated in a semi-recumbent position and blood samples were collected approximately every hour from 7:00 AM to 12:00 PM. The purpose of the pre-CP segment is to provide a measure of each subject's circadian phase before the start of the night shift segment. On day 4, subjects were randomized to once daily treatment in one of the five treatment groups. In addition, subject sleep-wake routines were advanced 5 hours, such that subjects were required to sleep from approximately 6:00 PM-2:00 AM. Treatment was administered and the time shift was maintained for 3 days. Efficacy parameters were collected during this time. To measure circadian phase at the end of the study, a 24-hour post-CP was conducted immediately after the treatment segment on day 7. Over the course of the study, approximately 500 mL of blood was drawn from each subject. Safety was assessed throughout the study, at the end of study (EOS) visit on day 8, and at the Follow-up visit. The target number of subjects for enrollment was 40 but 45 were actually enrolled.\nTo assess circadian sleep-wake cycles in the study, plasma melatonin levels were assessed. The onset of melatonin production, or dim light melatonin onset (DLMO), is associated with onset of sleep. DLMO is considered a standard marker used frequently to assess circadian phase. To assess the effects of Compound A on the sleep-wake cycles, DLMO was monitored in subjects before and after treatment. For this study, DLMO was defined as the time when melatonin production reaches 25% of the nightly peak (MEL25% up) of the fitted melatonin phase curve.\nBecause light has a significant confounding effect on melatonin release, light levels in the sleep laboratory were carefully regulated. […]"}, "[2]": {"tested_on": "healthy male and female subjects with induced transient insomnia", "test": "Example 2: single oral dose study in induced transient insomnia (PSG)", "method": "A multi-center, randomized, double-blind, placebo-controlled, parallel-group study was conducted to investigate the efficacy and safety of single oral doses of VEC-162 (20 mg, 50 mg, and 100 mg) and matching placebo in healthy male and female subjects with induced transient insomnia. Approximately four hundred subjects were randomized in approximately a 1:1:1:1 ratio to the treatment groups.\nIn general, a screening period began 14 to 35 days prior to the start of the evaluation period, which was Day 1. Prior to Day 1, subjects were asked to increase their sleep time to 9 hours per night. Drug, or placebo, was administered on Night 1, approximately 0.5 hour prior to lights off.\nThe primary efficacy variable was LPS. LPS is defined as the length of time elapsed between lights off and onset of persistent sleep. In this trial, persistent sleep is defined as the point at which 10 minutes of uninterrupted sleep has begun. Sleep was determined on the basis of polysomnography (PSG).\nWake After Sleep Onset (WASO): WASO is defined as the time spent awake between onset of sleep and Lights On during Night 1, determined by PSG.\nLatency to Non-Awake (LNA): LNA is defined as the number of minutes to reach any stage of sleep.\nTotal Sleep Time (TST): TST is defined as the number of minutes spent asleep during the entire time in bed."}, "[3]": {"tested_on": "circadian sleep-wake cycle", "test": "Clinical trial CN116-002, effects on the circadian sleep-wake cycle", "details": "50 mg", "method": "The oral doses selected were based on safety and efficacy data obtained from previous Compound A pre-clinical and clinical trials. […] Though not optimally designed to assess the chronobiotic potential of Compound A, clinical trial CN116-002 measured the effects Compound A on the circadian sleep-wake cycle. […] The doses selected for the study (10 mg, 20 mg, 50 mg, and 100 mg) were within the expected dose range for efficacy. The safety of the selected doses for this study is supported by previous clinical studies. […] The highest dose in the study, 100 mg, is well within the safety margin established in both Phase I single and multiple ascending dose trials and in a Phase II study."}, "[4]": {"details": "50 mg single oral dose, p<0.001"}, "[5]": {"details": "single oral dose, conclusion from Examples 1 and 2"}}}
{"smiles": "CCC(=O)NC[C@@H]1C[C@H]1c1cccc2c1CCO2", "note": "[Compound A, N-[[(1R,2R)-2-(2,3-dihydro-1-benzofuran-4-yl)cycloproply]methyl]propanamide]", "values": [{"measurement": "Change in DLMO25%,LOQ5 between Night 4 and Night 3", "setting": "[1]; 10 mg, N = 8", "value": 0.18, "unit": "h"}, {"measurement": "Change in WASO (fraction of time awake from persistent sleep to lights on) between Night 4 and Night 2", "setting": "[1]; 10 mg, N = 8", "value": 8.37, "unit": "% points"}, {"measurement": "Change in WASO between Night 4 and Night 2", "setting": "[1]; 10 mg, N = 8", "value": 40.56, "unit": "min"}, {"measurement": "Mean Change in Sleep Efficiency between Night 4 and Night 2, Full Night", "setting": "[1]; 10 mg, N = 8", "value": "−7.77", "unit": "% points"}, {"measurement": "Change in Latency to Persistent Sleep between Night 4 and Night 2", "setting": "[1]; 10 mg, N = 8, mean ± SD, p 0.0034 vs placebo", "value": "-8.25 ± 16.34", "unit": "min"}, {"measurement": "Mean Change in Sleep Efficiency between Night 4 and Night 2, 2nd Third of the Night", "setting": "[1]; 10 mg, N = 8, mean ± SD, p 0.0303 vs placebo", "value": "−12.64 ± 13.83", "unit": "% points"}, {"measurement": "Change in DLMO25%,LOQ5 between Night 4 and Night 3", "setting": "[1]; 20 mg, N = 7", "value": -1.14, "unit": "h"}, {"measurement": "Change in Latency to Persistent Sleep between Night 4 and Night 2", "setting": "[1]; 20 mg, N = 8", "value": 5.00, "unit": "min"}, {"measurement": "Change in WASO (fraction of time awake from persistent sleep to lights on) between Night 4 and Night 2", "setting": "[1]; 20 mg, N = 8", "value": 6.91, "unit": "% points"}, {"measurement": "Change in WASO between Night 4 and Night 2", "setting": "[1]; 20 mg, N = 8", "value": 31.19, "unit": "min"}, {"measurement": "Mean Change in Sleep Efficiency between Night 4 and Night 2, Full Night", "setting": "[1]; 20 mg, N = 8", "value": "−6.68", "unit": "% points"}, {"measurement": "Mean Change in Sleep Efficiency between Night 4 and Night 2, 2nd Third of the Night", "setting": "[1]; 20 mg, N = 8, mean ± SD, p 0.0048 vs placebo", "value": "−5.11 ± 12.78", "unit": "% points"}, {"measurement": "Change in DLMO25%,LOQ5 between Night 4 and Night 3", "setting": "[1]; 50 mg, N = 4", "value": -0.50, "unit": "h"}, {"measurement": "Change in WASO (fraction of time awake from persistent sleep to lights on) between Night 4 and Night 2", "setting": "[1]; 50 mg, N = 7", "value": 6.61, "unit": "% points"}, {"measurement": "Change in WASO between Night 4 and Night 2", "setting": "[1]; 50 mg, N = 7", "value": 31.21, "unit": "min"}, {"measurement": "Mean Change in Sleep Efficiency between Night 4 and Night 2, 2nd Third of the Night", "setting": "[1]; 50 mg, N = 7, mean ± SD, p 0.0028 vs placebo", "value": "−2.10 ± 4.14", "unit": "% points"}, {"measurement": "Change in Latency to Persistent Sleep between Night 4 and Night 2", "setting": "[1]; 50 mg, N = 7, mean ± SD, p 0.0193 vs placebo", "value": "-3.71 ± 10.97", "unit": "min"}, {"measurement": "Mean Change in Sleep Efficiency between Night 4 and Night 2, Full Night", "setting": "[1]; 50 mg, N = 7, mean ± SD, p 0.0487 vs placebo", "value": "−5.87 ± 9.89", "unit": "% points"}, {"measurement": "Change in DLMO25%,LOQ5 between Night 4 and Night 3", "setting": "[1]; 100 mg, N = 5, mean ± SD, p 0.0276 vs placebo", "value": "-2.74 ± 1.95", "unit": "h"}, {"measurement": "Change in Latency to Persistent Sleep between Night 4 and Night 2", "setting": "[1]; 100 mg, N = 6, mean ± SD, p 0.0214 vs placebo", "value": "-4.17 ± 6.93", "unit": "min"}, {"measurement": "Mean Change in Sleep Efficiency between Night 4 and Night 2, 2nd Third of the Night", "setting": "[1]; 100 mg, N = 7, mean ± SD, p 0.0030 vs placebo", "value": "−2.30 ± 5.72", "unit": "% points"}, {"measurement": "Mean Change in Sleep Efficiency between Night 4 and Night 2, Full Night", "setting": "[1]; 100 mg, N = 7, mean ± SD, p 0.0141 vs placebo", "value": "−2.02 ± 4.94", "unit": "% points"}, {"measurement": "Change in WASO (fraction of time awake from persistent sleep to lights on) between Night 4 and Night 2", "setting": "[1]; 100 mg, N = 7, mean ± SD, p 0.0391 vs placebo", "value": "1.85 ± 4.29", "unit": "% points"}, {"measurement": "Change in WASO between Night 4 and Night 2", "setting": "[1]; 100 mg, N = 7, mean ± SD, p 0.0452 vs placebo", "value": "8.50 ± 20.39", "unit": "min"}, {"measurement": "number of episodes of REM during the final third of the night", "setting": "[1]; Night 4, after phase advance", "value": "dose-related increase"}, {"measurement": "percentage of time in each sleep stage", "setting": "[1]; between Night 4 and Night 2", "value": "did not change"}, {"measurement": "tolerability", "setting": "[1]; doses of 10, 20, 50, and 100 mg, conclusion from Examples 1 and 2", "value": "well-tolerated"}, {"measurement": "lowest effective dose for DLMO shift", "setting": "[1]; first dose with statistically significant p-value in ANOVA with contrasts", "value": 100, "unit": "mg"}, {"measurement": "Latency to Persistent Sleep (LPS): Improvement compared with placebo", "setting": "[2]; 20 mg single oral dose, p<0.001", "value": 21.5, "unit": "min"}, {"measurement": "Total Sleep Time (TST): Improvement compared with placebo", "setting": "[2]; 20 mg single oral dose, p<0.002", "value": 33.7, "unit": "min"}, {"measurement": "Latency to Non-Awake (LNA): Improvement compared with placebo", "setting": "[2]; 20 mg single oral dose, p<0.006", "value": 11.1, "unit": "min"}, {"measurement": "Wake After Sleep Onset (WASO): Improvement compared with placebo", "setting": "[2]; 20 mg single oral dose, p<0.02", "value": 24.2, "unit": "min"}, {"measurement": "Latency to Non-Awake (LNA): Improvement compared with placebo", "setting": "[2]; [4]", "value": 14.3, "unit": "min"}, {"measurement": "Latency to Persistent Sleep (LPS): Improvement compared with placebo", "setting": "[2]; [4]", "value": 26.3, "unit": "min"}, {"measurement": "Total Sleep Time (TST): Improvement compared with placebo", "setting": "[2]; [4]", "value": 47.9, "unit": "min"}, {"measurement": "Wake After Sleep Onset (WASO): Improvement compared with placebo", "setting": "[2]; 50 mg single oral dose, p=0.001", "value": 33.7, "unit": "min"}, {"measurement": "Latency to Persistent Sleep (LPS): Improvement compared with placebo", "setting": "[2]; 100 mg single oral dose, p<0.001", "value": 22.8, "unit": "min"}, {"measurement": "Latency to Non-Awake (LNA): Improvement compared with placebo", "setting": "[2]; 100 mg single oral dose, p<0.002", "value": 12.3, "unit": "min"}, {"measurement": "Total Sleep Time (TST): Improvement compared with placebo", "setting": "[2]; 100 mg single oral dose, p<0.005", "value": 29.6, "unit": "min"}, {"measurement": "Wake After Sleep Onset (WASO): Improvement compared with placebo", "setting": "[2]; 100 mg single oral dose, p=0.081", "value": 17.5, "unit": "min"}, {"measurement": "tolerability", "setting": "[2]; all doses (20 mg, 50 mg, 100 mg)", "value": "well-tolerated"}, {"measurement": "efficacy of 20 mg relative to 100 mg", "setting": "[2]; [5]", "value": "comparable or superior to 100 mg"}, {"measurement": "efficacy of 50 mg relative to 100 mg", "setting": "[2]; [5]", "value": "more efficacious than 100 mg"}, {"measurement": "effect on circadian rhythms", "setting": "[3]", "value": "consistently shifted circadian rhythms"}]}
